Measured values from article PMC10957775, “Integrated chemical characterization, metabolite profiling, and pharmacokinetics analysis of Zhijun Tangshen Decoction by UPLC-Q/TOF-MS” (Frontiers in Pharmacology, 2024).
Like-named read-outs stand apart in the source and are kept apart here.

Experiments:
[1] = Multi-compound pharmacokinetics of ZJTSD in rat serum, semi-quantitative UPLC-Q/TOF-MS (peak area ratio versus time, non-compartmental); conditions: for pharmacokinetic behavior compared with other prototype compounds and metabolites (in words): non-compartmental analysis; for AUC (in words): peak area ratio versus time
Protocol: (§1) Thirty male Sprague–Dawley rats (200 ± 20 g) were purchased from the Nanjing Qinglongshan Experimental Animal Center (Nanjing, China). […] All rats were divided randomly into two groups: ZJTSD-dosed group (n = 27) and control group (n = 3). The ZJTSD-dosed group was given the ZJTSD solution by gavage (i.g.) at a dosage of 1 mL/100 g body weight of rats, and the control group was given 0.9% normal saline at the same dose, twice a day for a week. After the last administration, the blood was collected from the hepatic portal vein at 15 min, 30 min, 1 h, 2 h, 4 h, 6 h, 8 h, 12 h, and 24 h, and 3 rats were taken at each time point.
(§2) The blood samples of rats were centrifuged at 4,000 rpm for 10 min to obtain the serum. The serum sample (1 mL) was processed with a 3-fold volume using methanol for protein precipitation, with epicoprostanol serving as the internal standard (digoxin and clarithromycin). After vortexing for 3 min, the mixture was centrifuged at 18,000 rpm for 10 min. Subsequently, the supernatant was evaporated at 45°C using a vacuum concentrator. After evaporating the solvent, 150 μL of methanol/water (1:1, v/v) was added, vortexed, sonicated, and then centrifuged at 18,000 rpm for 10 min at 4°C. The resulting supernatant was used for further analysis.
(§3) Liquid chromatographic separation was performed using an AB SCIEX LC™ 2.0 system (AB SCIEX, United States) fitted with an Acquity UPLC BEH C18 column (100 mm × 2.1 mm, 1.7 μm; Ireland). The mobile phases in negative and positive ion modes consisted of 0.1% FA aqueous solution (A) and acetonitrile containing 0.1% FA (B). The program of the elution gradient was set as follows: 0∼5 min, 2%∼35 %B; 5∼7 min, 35%∼50%; 7∼10 min, 50%∼70%; 10∼15 min, 70%∼90 %B; 15∼18 min, 90%∼90 %B; 18∼18.5 min, 90%∼2 %B; and 18.5∼20 min, 2%∼2 %B. The injection volume was 3 µL. The flow rate and the column temperature were set at 0.3 mL/min and 40°C, respectively.
(§4) The mass spectrometry analysis was performed on a SCIEX ZenoTOF™ 7600 system (AB SCIEX, United States), which was calibrated in the high-sensitivity mode for every 10 samples. Spectra were acquired in the TOF/MS-IDA-TOF MS/MS mode with the ESI source operating in positive and negative ion modes. MS parameters were set as follows: ionization source, ESI; spray voltage, 5,500 kV/–4,500 kV; collision energy, 40 V/–40 V; declustering potential, 80 V/–80 V; ion source temperature, 550°C; and scan range, 100–1250 m/z. Data acquisition and processing were performed using SCIEX OS 2.2 and PeakView 2.2.
(§5) A semi-quantitative method was adopted based on the correction peak area versus time ([Wang et al., 2011]; [Lin et al., 2019]). The mean serum time-course profile of pharmacokinetics based on the peak area ratio versus time was plotted using Origin 2018. The kinetic analysis of the peak area ratio (×1,000)–time curve was calculated using Phoenix WinNonlin 8.1 (Phoenix, American) software and illustrated.

[2] = rat, in vivo, po
Protocol: as §1, §2, §3, §4, §5

[3] = male, Sprague-Dawley, rat, serum (hepatic portal vein blood), po, 1 mL/100 g body weight, t1/2, metabolites of ZJTSD in rat serum, mean±SD, n=3
[4] = metabolites of ZJTSD in rat serum, mean±SD, n=3, in h
[5] = male, Sprague-Dawley, rat, serum (hepatic portal vein blood), po, 1 mL/100 g body weight
[6] = male, Sprague-Dawley, rat, serum (hepatic portal vein blood), po, 1 mL/100 g body weight, t1/2, prototype compounds of ZJTSD absorbed into rat serum, mean±SD, n=3
[7] = prototype compounds of ZJTSD absorbed into rat serum, mean±SD, n=3, in h
[8] = male, Sprague-Dawley, rat, serum (hepatic portal vein blood), po, 1 mL/100 g body weight, elimination half-life (t1/2), rat hepatic portal vein serum after oral ZJTSD, semi-quantitative peak area ratio

Compound	MRT last [1, 5] [h]	Tmax [1, 5] [h]	half-life [1, 6] [h]	further results
O=C(CCc1ccc(O)cc1)c1ccc(O)cc1O [M11]	–	–	–	half-life [1, 3]: 7.01 ± 2.29 h
O=C1C[C@@H](c2ccc(O)cc2)Oc2cc(O)ccc21 [M18]	–	–	–	detection in serum / absorbed form [2]: detected in vivo
Cc1ccc2c(c1)C(=O)c1cc(OS(=O)(=O)O)ccc1C2=O [M26]	–	–	–	AUC (in words) [2]: greater; Tmax [2]: ≤ 3.5 h; elimination half-life (t1/2) [2]: less than 4 h; pharmacokinetic behavior compared with other prototype compounds and metabolites (in words) [2]: better pharmacokinetic behavior
Cc1cc(O)c2c(c1)C(=O)c1ccccc1C2=O [M63]	–	–	–	half-life [1, 3]: 5.43 ± 2.61 h
CC1CCC2(C(=O)O)CCC3(C)C(=CCC4C5(C=O)CC(O)C(O)C(C)(C)C5CCC43C)C2C1(C)O (stereo not drawn) [M77]	–	–	–	half-life [1, 3]: 10.8 ± 4.71 h
OC1COCC1O (stereo not drawn) [M87]	–	–	–	MRT(0→t) [1, 4]: 9.59±1.35; Tmax [1, 4]: 1.17±0.76; t1/2 [1, 4]: 17.68±16.89
COC(=O)c1ccc(O)cc1 [M89]	–	–	–	MRT(0→t) [1, 4]: 5.35±0.92; Tmax [1, 4]: 3.00±1.73
O=CCC(O)(CC(=O)O)C(=O)O (stereo not drawn) [M90]	–	–	–	MRT(0→t) [1, 4]: 7.25±1.46; Tmax [1, 4]: 1.08±0.88; t1/2 [1, 4]: 7.50±1.85; Tmax ([1]; rat hepatic portal vein serum after oral ZJTSD twice a day for a week, semi-quantitative peak area ratio): ≤ 3.5 h; elimination half-life (t1/2) ([1]; rat hepatic portal vein serum after oral ZJTSD, semi-quantitative peak area ratio): > 7.5 h; time to peak (in words) ([1]; rat serum after oral ZJTSD): faster time to peak; pharmacokinetic behavior compared with other prototype compounds and metabolites (in words) ([1]; rat serum after oral ZJTSD): better pharmacokinetic behavior; AUC (in words) ([1]; rat serum after oral ZJTSD): greater
O=C(O)/C=C/c1ccc(O)cc1 [M91]	–	–	–	MRT(0→t) [1, 4]: 3.97±0.59; Tmax [1, 4]: 1.58±2.10; t1/2 [1, 4]: 3.23±0.95
Cc1cc(O)cc2oc(CC(C)O)cc(=O)c12 (stereo not drawn) [P2, 7-Hydroxy-2-(2-hydroxypropyl)-5-methylchromen-4-one]	3.45 ± 0.58	0.67 ± 0.29	2.17 ± 0.12	level of exposure in the blood (in words) ([1]; rat serum after oral ZJTSD): higher level of exposure; pharmacokinetic behavior compared with other prototype compounds and metabolites (in words) ([1]; rat serum after oral ZJTSD): better pharmacokinetic behavior
COc1c(-c2ccccc2)oc2cc(O)cc(O)c2c1=O [P3, 3-Methoxy-5,7-dihydroxyflavone]	4.8 ± 0.38	1.83 ± 1.89	4.04 ± 1.91	–
Cc1cc(=O)c2c(CC(=O)O)cc(O)cc2o1 [P4, 2-Methyl-5-carboxymethyl-7-hydroxychromone]	5.29 ± 0.3	1.67 ± 2.02	3.14 ± 0.86	–
CC(=O)Cc1cc(O)cc2oc(C)cc(=O)c12 [P5, 2-Methyl-5-acetonyl-7-hydroxychromone]	4.23 ± 0.55	0.67 ± 0.29	3.09 ± 0.19	–
COc1cc(-c2coc3cc(O)ccc3c2=O)ccc1O [P10, 7,4'-Dihydroxy-3'-methoxyisoflavone]	10.8 ± 0.72	2.08 ± 1.88	67.3 ± 4.4	–
Cc1cc2c(cc1O)C(=O)c1ccccc1C2=O [P11, 2-Methyl-3-hydroxyanthraquinone]	3.23 ± 0.59	0.67 ± 0.29	4.29 ± 2.71	level of exposure in the blood (in words) ([1]; rat serum after oral ZJTSD): higher level of exposure; pharmacokinetic behavior compared with other prototype compounds and metabolites (in words) ([1]; rat serum after oral ZJTSD): better pharmacokinetic behavior
COc1c(O)ccc2c1C(=O)c1ccccc1C2=O [P14, 2-Hydroxy-1-methoxyanthraquinone]	4.24 ± 0.57	0.67 ± 0.29	3.5 ± 2.06	level of exposure in the blood (in words) ([1]; rat serum after oral ZJTSD): higher level of exposure; pharmacokinetic behavior compared with other prototype compounds and metabolites (in words) ([1]; rat serum after oral ZJTSD): better pharmacokinetic behavior

Compound	MRT last [1, 5] [h]	Tmax [1, 5] [h]	half-life [1, 6] [h]	further results
O=C1c2ccccc2C(=O)c2cc(CO)c(O)cc21 [P15, 2-Hydroxy-3-hydroxymethylanthraquinone]	4.81 ± 0.31	1.67 ± 2.02	–	–
O=C1c2cccc(O)c2C(=O)c2c(O)cc(CO)cc21 [P17, Aloe-emodin]	5.2 ± 3.03	4.17 ± 3.75	1.73	detection in serum / absorbed form ([1]; rat serum after oral ZJTSD): absorbed as prototype compounds
COc1c(O)c(C)cc2c1C(=O)c1ccc(O)cc1C2=O [P21, 2,6-Dihydroxy-1-methoxy-3-methylanthraquinone]	4.27 ± 0.55	2.5 ± 3.04	3.45 ± 1.44	–
N[C@@H](Cc1c[nH]c2ccccc12)C(=O)O [P23, Tryptophan]	12.4 ± 0.14	1.08 ± 0.88	–	–
N[C@@H](Cc1c[nH]cn1)C(=O)O [P24, Histidine]	9.9 ± 0.35	2.75 ± 2.95	21.1 ± 10.2	–
O=C1CCCn2c(CO)ccc21 [P34, Polygonatine A]	–	–	–	MRT(0→t) [1, 7]: 3.96±0.32; t1/2 [1, 7]: 3.76±1.03
O=C(O)/C=C/c1ccccc1 [P36, Cinnamic acid]	5.15 ± 0.25	1.58 ± 2.1	25.8 ± 26.4	–
O=C(O)C=Cc1ccc(O)cc1 [P37, p-Coumaric acid]	3.97 ± 0.59	1.58 ± 2.1	3.23 ± 0.95	level of exposure in the blood (in words) ([1]; rat serum after oral ZJTSD): higher level of exposure; pharmacokinetic behavior compared with other prototype compounds and metabolites (in words) ([1]; rat serum after oral ZJTSD): better pharmacokinetic behavior
O=c1ccc2cc(O)c(O)cc2o1 [P39, Esculetin]	4.92 ± 0.8	0.33 ± 0.14	4.4 ± 3.9	–
O=C(O)CC(O)(CC(=O)O)C(=O)O [P40, Citric acid]	9.56 ± 1.76	3.33 ± 1.16	24.7 ± 23.6	MRT [1, 5]: 9.56 h; half-life [1, 8]: 21 h; AUC (in words) ([1]; rat serum after oral ZJTSD): largest
O=C(O)c1ccc(O)cc1 [P41, p-Hydroxybenzoic acid]	9.15 ± 0.95	2.75 ± 2.17	19.4 ± 2.9	pharmacokinetic behavior compared with other prototype compounds and metabolites (in words) ([1]; rat serum after oral ZJTSD): better pharmacokinetic behavior
C=Cc1ccc(O)c(OC)c1 [P42, 4-Vinyl-2-methoxyphenol]	10.2 ± 0.64	10.7 ± 2.31	–	–
CCCCCCCCCCCCCCCCOC[C@@H](O)COP(=O)([O-])OCC[N+](C)(C)C [P44, 1-O-Hexadecyl-sn-glycero-3-phosphocholine]	11.9 ± 0.91	0.58 ± 0.38	33.1 ± 13.3	–
CCCCCCCCCCCCCCCCCC(=O)OC[C@@H](O)COP(=O)([O-])OCC[N+](C)(C)C [P45, 1-O-Octadecanoyl-sn-glycero-3-phosphocholine]	9.91 ± 0.56	2	21.9 ± 6.81	MRT [1, 5]: 9.91 h; half-life [1, 8]: 21 h; pharmacokinetic behavior compared with other prototype compounds and metabolites (in words) ([1]; rat serum after oral ZJTSD): better pharmacokinetic behavior
O=C1CCCCN1 [P47, 2-Piperidone]	11.8 ± 0.21	12	–	–

More lines, main results first:

MRT last [1, 5] [h]	Tmax [1, 5] [h]	half-life [1, 6] [h]	Compound	further results
3.43 ± 0.76	0.67 ± 0.29	2.7 ± 0.14	Cc1cc(=O)c2c(C)cc(O)cc2o1 [P1, 2,5-Dimethyl-7-hydroxychromone]	level of exposure in the blood (in words) ([1]; rat serum after oral ZJTSD): higher level of exposure; pharmacokinetic behavior compared with other prototype compounds and metabolites (in words) ([1]; rat serum after oral ZJTSD): better pharmacokinetic behavior
12.1 ± 0.02	4.75 ± 4.02	–	COc1cc(C)c2c(=O)cc(C)oc2c1 [P6, 2,5-Dimethyl-7-methoxychromone]	–
3.55 ± 0.57	1.67 ± 2.02	4.7 ± 0.9	O=C(O)c1cc(O)c2c(c1)C(=O)c1cccc(O)c1C2=O [P18, Rhein]	detection in serum / absorbed form ([1]; rat serum after oral ZJTSD): absorbed as prototype compounds
12.5 ± 1.36	2.17 ± 3.32	–	CSCC[C@H](N)C(=O)O [P25, L-Methionine]	–
11.1 ± 0.44	0.5	47.1 ± 35.8	O=C(O)[C@@H]1CCCN1 [P26, Proline]	–
13.9 ± 1.35	14 ± 9.17	–	COC(=O)C1CCC(=O)N1 (stereo not drawn) [P33, 5-Oxo-pyrrolidine-2-carboxylic acid methyl ester]	–
10.8 ± 0.64	6.67 ± 4.62	24.2 ± 14.5	C[N+](C)(C)CC(=O)O [P35, Betaine]	–
4.36 ± 1.52	0.5	4.77 ± 1.43	COc1cc2ccc(=O)oc2cc1O [P38, Scopoletin]	–
12.7 ± 0.3	12.1 ± 11.9	–	O=Cc1c[nH]c2ccccc12 [P46, Indole-3-carbaldehyde]	–
4.2 ± 0.25	4.67 ± 1.16	–	CC(=O)/C=C/c1ccc(CO)o1 [P51, (E)-4-[5-(Hydroxymethyl)-2-furanyl]-3-butene-2-one]	–
